Data: PubChem BioAssay AID2060513 (Molecular Pharmacology Branch, DTP, NCI, 2025)

Test system: 299254-011-R-J1-PDC complex spheroids viability
Assay: Anticancer human tumor 299254-011-R-J1-PDC patient-derived melanoma cell line growth inhibition [GQUAD]
Conditions: for IC50: curve of first compound; for viability, T/C: stronger effect = lower value
In short: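 Multi-cell-type spheroids of tumor cells with HUVEC and mesenchymal stem cells, treated with drug combinations. Concentrations descend in half-log steps from near clinical Cmax, or from 10 microM where Cmax is unknown; viability read-out.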

[1] = second compound 0.0316 µM, first compound 0.0316 µM
[2] = second compound 0.0316 µM, first compound 0.1 µM
[3] = second compound 0.0316 µM, first compound 0.316 µM
[4] = second compound 0.0316 µM, first compound 1 µM
[5] = second compound 0.0316 µM, first compound 3.16 µM
[6] = second compound 0.0316 µM, first compound 10 µM
[7] = second compound 0.1 µM, first compound 0.0316 µM
[8] = second compound 0.1 µM, first compound 0.1 µM
[9] = second compound 0.1 µM, first compound 0.316 µM
[10] = second compound 0.1 µM, first compound 1 µM
[11] = second compound 0.1 µM, first compound 3.16 µM
[12] = second compound 0.1 µM, first compound 10 µM
[13] = second compound 0.316 µM, first compound 0.0316 µM
[14] = second compound 0.316 µM, first compound 0.1 µM
[15] = second compound 0.316 µM, first compound 0.316 µM
[16] = second compound 0.316 µM, first compound 1 µM
[17] = second compound 0.316 µM, first compound 3.16 µM
[18] = second compound 0.316 µM, first compound 10 µM
[19] = second compound 1 µM, first compound 0.0316 µM
[20] = second compound 1 µM, first compound 0.1 µM
[21] = second compound 1 µM, first compound 0.316 µM
[22] = second compound 1 µM, first compound 1 µM
[23] = second compound 1 µM, first compound 3.16 µM
[24] = second compound 1 µM, first compound 10 µM
[25] = second compound 3.16 µM, first compound 0.0316 µM
[26] = second compound 3.16 µM, first compound 0.1 µM
[27] = second compound 3.16 µM, first compound 0.316 µM
[28] = second compound 3.16 µM, first compound 1 µM
[29] = second compound 3.16 µM, first compound 3.16 µM
[30] = second compound 3.16 µM, first compound 10 µM
[31] = second compound 10 µM, first compound 0.0316 µM
[32] = second compound 10 µM, first compound 0.1 µM
[33] = second compound 10 µM, first compound 0.316 µM
[34] = second compound 10 µM, first compound 1 µM
[35] = second compound 10 µM, first compound 3.16 µM
[36] = second compound 10 µM, first compound 10 µM
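Also: spheroids exposed to the agents for seven days before readout.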
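For viability, T/C in this document: percent viability relative to DMSO vehicle control wells = 100%.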

For `COc1ccc([C@@H](O)c2cc(-c3ncnc4cc(N5CCOCC5)ccc34)c(F)cc2Cl)nn1` + Cc1cnc(CNC(=O)c2c(=O)c3ccc(N4CCCN(C)CC4)nc3n3c2sc2ccccc23)cn1, which IC50 (second compound 0.0316 µM) is on record?
Its IC50 is 7.51 µM.

What about the IC50 (second compound 0.1 µM) of the same compound?
Its IC50 is 6.85 µM.

And the IC50 (second compound 0.316 µM)?
The IC50 was 3.15 µM.

And the IC50 (second compound 1 µM)?
The IC50 was 2.79 µM.

What about the IC50 (second compound 3.16 µM) of the same compound?
Its IC50 is 2.71 µM.

And the IC50 (second compound 10 µM)?
The IC50 was less than 0.0316 µM.

And the viability, T/C [1]?
Its viability, T/C is 75.6%.

What about the viability, T/C [2] of the same compound?
The viability, T/C was 87.8%.

And the viability, T/C [3]?
The viability, T/C was 83.6%.

And the viability, T/C [4]?
Its viability, T/C is 82%.

And the viability, T/C [5]?
Its viability, T/C is 83.4%.

What about the viability, T/C [6] of the same compound?
Its viability, T/C is 39.2%.

What about the viability, T/C [7] of the same compound?
The viability, T/C was 86.4%.

What about the viability, T/C [8] of the same compound?
Its viability, T/C is 82.5%.

And the viability, T/C [9]?
Its viability, T/C is 109%.

And the viability, T/C [10]?
Its viability, T/C is 88.2%.

And the viability, T/C [11]?
Its viability, T/C is 78.1%.

What about the viability, T/C [12] of the same compound?
The viability, T/C was 36%.

What about the viability, T/C [13] of the same compound?
Its viability, T/C is 84%.

What about the viability, T/C [14] of the same compound?
The viability, T/C was 87.4%.

And the viability, T/C [15]?
The viability, T/C was 86.6%.

And the viability, T/C [16]?
The viability, T/C was 68.1%.

What about the viability, T/C [17] of the same compound?
Its viability, T/C is 51.6%.

What about the viability, T/C [18] of the same compound?
The viability, T/C was 32.4%.

And the viability, T/C [19]?
The viability, T/C was 81.5%.

What about the viability, T/C [20] of the same compound?
Its viability, T/C is 76.6%.

And the viability, T/C [21]?
Its viability, T/C is 73%.

And the viability, T/C [22]?
The viability, T/C was 80%.

What about the viability, T/C [23] of the same compound?
Its viability, T/C is 46.6%.

And the viability, T/C [24]?
Its viability, T/C is 26.7%.

And the viability, T/C [25]?
Its viability, T/C is 67.2%.

And the viability, T/C [26]?
Its viability, T/C is 63.1%.

What about the viability, T/C [27] of the same compound?
Its viability, T/C is 57.2%.

And the viability, T/C [28]?
Its viability, T/C is 62.8%.

And the viability, T/C [29]?
Its viability, T/C is 47.7%.

What about the viability, T/C [30] of the same compound?
Its viability, T/C is 23.2%.

What about the viability, T/C [31] of the same compound?
Its viability, T/C is 0.4%.

And the viability, T/C [32]?
Its viability, T/C is 24.3%.

What about the viability, T/C [33] of the same compound?
Its viability, T/C is 45.3%.

And the viability, T/C [34]?
The viability, T/C was 21.1%.

And the viability, T/C [35]?
The viability, T/C was 0.32%.

And the viability, T/C [36]?
Its viability, T/C is 0.26%.

What does the source list for `CCCS(=O)(=O)Nc1ccc(F)c(C(=O)c2c[nH]c3ncc(-c4ccc(Cl)cc4)cc23)c1F` + Cc1[nH]c2ccc(F)cc2c1-c1nc2c3cccnc3c3ncccc3c2[nH]1?
IC50 (second compound 0.0316 µM): 8.45 µM; IC50 (second compound 0.1 µM): 8.51 µM; IC50 (second compound 0.316 µM): 8.05 µM; IC50 (second compound 1 µM): 7.26 µM; IC50 (second compound 3.16 µM): 7.74 µM; IC50 (second compound 10 µM): 7.38 µM; viability, T/C [1]: 91.6%; viability, T/C [2]: 109%; viability, T/C [3]: 109%; viability, T/C [4]: 88.3%; viability, T/C [5]: 76.8%; viability, T/C [6]: 45.4%; viability, T/C [7]: 98.6%; viability, T/C [8]: 110%; viability, T/C [9]: 100%; viability, T/C [10]: 82.7%; viability, T/C [11]: 105%; viability, T/C [12]: 41.9%; viability, T/C [13]: 86.6%; viability, T/C [14]: 123%; viability, T/C [15]: 110%; viability, T/C [16]: 108%; viability, T/C [17]: 90.7%; viability, T/C [18]: 40.4%; viability, T/C [19]: 94.8%; viability, T/C [20]: 103%; viability, T/C [21]: 84.1%; viability, T/C [22]: 107%; viability, T/C [23]: 79.7%; viability, T/C [24]: 38.6%; viability, T/C [25]: 91.4%; viability, T/C [26]: 109%; viability, T/C [27]: 92.3%; viability, T/C [28]: 115%; viability, T/C [29]: 82.6%; viability, T/C [30]: 40.7%; viability, T/C [31]: 81.3%; viability, T/C [32]: 108%; viability, T/C [33]: 101%; viability, T/C [34]: 105%; viability, T/C [35]: 88.8%; viability, T/C [36]: 35.8%

With `CC1COCCN1c1cc(C2(S(C)(=N)=O)CC2)nc(-c2ccnc3[nH]ccc23)n1` (stereo unspecified) + CN(C)c1ccc(Nc2c3ccc(NC(=O)CCN4CCCC4)cc3nc3cc(NC(=O)CCN4CCCC4)ccc23)cc1 as the compound, how does the IC50 (second compound 0.0316 µM) read?
The IC50 was 6.24 µM.

And the IC50 (second compound 0.1 µM)?
The IC50 was 3.93 µM.

And the IC50 (second compound 0.316 µM)?
The IC50 was 5.06 µM.

And the IC50 (second compound 1 µM)?
Its IC50 is 4.48 µM.

What about the IC50 (second compound 3.16 µM) of the same compound?
Its IC50 is 3.63 µM.

What about the IC50 (second compound 10 µM) of the same compound?
Its IC50 is 2.91 µM.

What about the viability, T/C [1] of the same compound?
Its viability, T/C is 99.6%.

And the viability, T/C [2]?
The viability, T/C was 106%.

And the viability, T/C [3]?
The viability, T/C was 98%.

What about the viability, T/C [4] of the same compound?
The viability, T/C was 93.1%.

What about the viability, T/C [5] of the same compound?
Its viability, T/C is 75.6%.

And the viability, T/C [6]?
The viability, T/C was 32.2%.

What about the viability, T/C [7] of the same compound?
The viability, T/C was 116%.

And the viability, T/C [8]?
Its viability, T/C is 128%.

What about the viability, T/C [9] of the same compound?
Its viability, T/C is 101%.

What about the viability, T/C [10] of the same compound?
Its viability, T/C is 77.5%.

What about the viability, T/C [11] of the same compound?
Its viability, T/C is 59.7%.

What about the viability, T/C [12] of the same compound?
The viability, T/C was 27.9%.

And the viability, T/C [13]?
The viability, T/C was 105%.

What about the viability, T/C [14] of the same compound?
Its viability, T/C is 98.2%.

What about the viability, T/C [15] of the same compound?
Its viability, T/C is 131%.

What about the viability, T/C [16] of the same compound?
Its viability, T/C is 82.4%.

What about the viability, T/C [17] of the same compound?
The viability, T/C was 71.4%.

And the viability, T/C [18]?
The viability, T/C was 23.5%.

And the viability, T/C [19]?
Its viability, T/C is 114%.

And the viability, T/C [20]?
The viability, T/C was 95.3%.

And the viability, T/C [21]?
The viability, T/C was 85%.

And the viability, T/C [22]?
The viability, T/C was 78%.

And the viability, T/C [23]?
The viability, T/C was 65.5%.

And the viability, T/C [24]?
The viability, T/C was 27.9%.

What about the viability, T/C [25] of the same compound?
The viability, T/C was 125%.

What about the viability, T/C [26] of the same compound?
Its viability, T/C is 100%.

What about the viability, T/C [27] of the same compound?
The viability, T/C was 87.3%.

And the viability, T/C [28]?
The viability, T/C was 80.4%.

What about the viability, T/C [29] of the same compound?
The viability, T/C was 53.2%.

And the viability, T/C [30]?
The viability, T/C was 28.3%.

What about the viability, T/C [31] of the same compound?
The viability, T/C was 105%.

What about the viability, T/C [32] of the same compound?
The viability, T/C was 117%.

What about the viability, T/C [33] of the same compound?
The viability, T/C was 101%.

And the viability, T/C [34]?
The viability, T/C was 98%.

And the viability, T/C [35]?
The viability, T/C was 46.1%.

What about the viability, T/C [36] of the same compound?
The viability, T/C was 32%.
